# “Also recorded” adds a separate entry of the source.
# Key:
# [1] = target: T1, RXRα ligand-binding domain (LBD) (Homo sapiens, UniProt P19793); test: Competitive ligand-binding assay with [3H]9-cis-RA
# T1 construct: made in house
# Protocol: (§1) Competitive ligand-binding assays (FIG. 1A) and HPLC analysis of Sulindac binding to RXRα, Nur77, or RARβ in HEK293T cells (FIG. 1B) were performed. RXRα LBD protein was incubated with [^3H]9-cis-RA in the presence or absence of Sulindac or unlabeled 9-cis-RA. Bound [^3H]9-cis-RA was quantitated by liquid scintillation counting (FIG. 1A). HEK293T cells stably expressing RXRαfused to a C-terminal TAP tag (Stratagene, La Jolla, Calif.) were treated with or without 100 μM sulindac sulfide for 3 hr. After treatment, cells were purified and analyzed by HPLC for the presence of sulindac sulfide. A standard solution of sulindac sulfide was used to obtain the calibration curve. Characteristic peak spectrum and retention time was used for identification, and peak areas at max used for quantification were calculated (FIGS. 1B and 10). Sulindac sulfide bound to RXRα with an IC50 of 80 μM (FIG. 1A), which is in the concentration range that induces apoptosis.
# Bacterially expressed His-tagged RXRα ligand-binding domain (LBD) (aa 223-462) was incubated with [^3H]-9-cis-RA (Amersham Biosciences, Amersham, UK) in ligand binding assay buffer in the presence or absence of various concentrations of unlabeled 9-cis-RA or sulindac sulfide. […] Bound radiolabeled 9-cis-RA was determined in a scintillation counter as described (Kolluri, S. K. et al., Proc Natl Acad Sci USA 102 (7), 2525-2530 (2005)).
# [2] = test system: HeLa/RXRα/1-134 stable clone; test: Colony formation (clonogenic survival) assay; format: cell-based; conditions: HeLa/RXRα/1-134 stable clone (also RXRα/Δ80 stable clones)
# Protocol: HeLa RXR/α1-134 stable clone and control HeLa cells were seeded in 6-well plate, 350 cells/well. Five days later, cells were treated with Sulindac (50 μM) and K-80003 (25 μM) in 0.5% serum medium for 3 days. After washed with PBS, cells were fixed with 4% paraformaldehyde in PBS for 20 min. Colonies were stained with 0.1% crystal violet for 30 min, and pictures were taken and colonies were counted.
# AKT = test: TNFα-induced AKT activation by immunoblotting; format: cell-based
# Protocol: MEF and MCF-7 cells were starved overnight, pretreated with Sulindac for 1 hr, and stimulated with EGF (100 ng/ml) for 15 min. AKT activation was analyzed by immunoblotting (FIG. 12A). MEF and Caco-2 cells were starved overnight and pretreated with Sulindac for 30 min before exposure to all-trans-retinoic acid (ATRA) (10^−7 M) for 30 min and analyzed for AKT activation (FIG. 12B). AKT activation in ZR-75-1 breast cancer cells transfected with RXRα siRNA for 48 hr before exposure to 9-cis-RA (10^−7 M) for 30 min was also analyzed by immunoblotting (FIG. 12C). A549 lung cancer cells transfected with RXRα or control siRNA (FIG. 3C) and ZR-75-1 and PC3 cells (FIG. 3D) were pretreated with Sulindac (100 μM) for 1 hr before exposure to TNFα (10 ng/ml) for 30 min and analyzed for AKT activation and RXRα expression by immunoblotting.
# For immunoblotting, cell lysates were boiled in SDS sample buffer, resolved by SDS-polyacrylamide gel electrophoresis, and transferred to nitrocellulose. After transfer, the membranes were blocked in 5% milk in TBST (10 mM Tris-HCl, pH. 8.0, 150 mM NaCl, 0.05% Tween 20) containing antibody. The membranes were then washed three times with TBST, then incubated for 1 hr at room temperature in 5% milk in TBST containing horseradish peroxide-linked anti-immunoglobulin.
# HepG2 liver cancer cells = test: PARP cleavage and caspase-8 activation with TNFα by immunoblotting; format: cell-based; conditions: HepG2 (K-80003: HepG2 and PC3) cells, TNFα 10 ng/ml
# Protocol: ZR-75-1 cells were treated with TNFα and/or Sulindac (75 μM) or K-80003 (50 μM) for 6 hr and analyzed by immunoblotting.
# HepG2 cells cultured in medium with 1% FBS were treated with SR11237 (1 μM) for 1 hr, then TNFα (10 ng/ml) and/or Sulindac (75 μM) for 4 hr, and analyzed by immunoblotting. HepG2 cells transfected with control or RXRα siRNA were treated with TNFα and/or Sulindac and analyzed by immunoblotting.
# c-FLIP = c-FLIP expression by immunoblotting; format: cell-based; conditions: HepG2, A549 and SW480 cells, 6 hr
# Protocol: Cells treated with TNFα and/or Sulindac for 6 hr were analyzed by immunoblotting (FIG. 6I). The expression of c-FLIP, a downstream target gene of AKT signaling, which acts as a potent inhibitor of the extrinsic apoptotic pathway by inhibiting caspase-8 activation, was examined. […] Thus, Sulindac may induce apoptosis by suppressing the inducing effect of TNFα on c-FLIP expression.
# RARβ = target: T2, RARβ (Homo sapiens, UniProt P10826); test: HPLC analysis of sulindac sulfide binding to receptor protein in cells; conditions: HEK293T cells, 100 μM, 3 hr
# T2 construct: expressed in transfected cells
# Protocol: as §1, with “10).” for “10). Sulindac sulfide bound to RXRα with an IC50 of 80 μM (FIG. 1A), which is in the concentration range that induces apoptosis.”
# (§2) Expression vector containing receptor fused to C-terminal TAP fusion (Stratagene, La Jolla, Calif.) was transfected into HEK293 cells using FuGene 6 transfection reagent (Roche, Basel, Switzerland). The cells were maintained in exponential growth in complete medium, DMEM (Mediatech Inc., Herndon, Va.) supplemented with 10% calf serum (SCS, Hyclone Logan, Utah), 2 mM glutamine, penicillin (100 U/ml) and streptomycin (100 μg/ml). At two days post-transfection cells were switched into medium containing […] G418 until 20 days post-transfection, when dishes were scored for drug-resistant colonies. Expression of RXRα fusion protein was determined by immunoblotting. […] A standard solution of sulindac sulfide was used to obtain the calibration curve.
# RXRα = target: T3, RXRα (Homo sapiens, UniProt P19793); test: as above; conditions: HEK293T cells stably expressing TAP-tagged receptor, 100 μM, 3 hr
# T3 construct: expressed in transfected cells
# Protocol: as §1, with “10).” for “10). Sulindac sulfide bound to RXRα with an IC50 of 80 μM (FIG. 1A), which is in the concentration range that induces apoptosis.”
# as §2
# Nur77 = target: T4, Nur77 (Homo sapiens, UniProt P22736); test: as above; conditions: HEK293T cells, 100 μM, 3 hr
# T4 construct: expressed in transfected cells
# Protocol: as §1, with “10).” for “10). Sulindac sulfide bound to RXRα with an IC50 of 80 μM (FIG. 1A), which is in the concentration range that induces apoptosis.”
# as §2
# T1 sequence (P19793 223-462): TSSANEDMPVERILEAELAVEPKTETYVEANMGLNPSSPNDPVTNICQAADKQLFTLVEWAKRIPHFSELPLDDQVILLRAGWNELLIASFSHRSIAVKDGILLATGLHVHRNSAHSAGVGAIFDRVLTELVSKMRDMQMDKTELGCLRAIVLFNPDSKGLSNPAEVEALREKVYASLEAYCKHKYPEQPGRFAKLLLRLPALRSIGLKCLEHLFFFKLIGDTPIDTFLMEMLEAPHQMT
# T4 sequence (P22736 whole entry, species assumed): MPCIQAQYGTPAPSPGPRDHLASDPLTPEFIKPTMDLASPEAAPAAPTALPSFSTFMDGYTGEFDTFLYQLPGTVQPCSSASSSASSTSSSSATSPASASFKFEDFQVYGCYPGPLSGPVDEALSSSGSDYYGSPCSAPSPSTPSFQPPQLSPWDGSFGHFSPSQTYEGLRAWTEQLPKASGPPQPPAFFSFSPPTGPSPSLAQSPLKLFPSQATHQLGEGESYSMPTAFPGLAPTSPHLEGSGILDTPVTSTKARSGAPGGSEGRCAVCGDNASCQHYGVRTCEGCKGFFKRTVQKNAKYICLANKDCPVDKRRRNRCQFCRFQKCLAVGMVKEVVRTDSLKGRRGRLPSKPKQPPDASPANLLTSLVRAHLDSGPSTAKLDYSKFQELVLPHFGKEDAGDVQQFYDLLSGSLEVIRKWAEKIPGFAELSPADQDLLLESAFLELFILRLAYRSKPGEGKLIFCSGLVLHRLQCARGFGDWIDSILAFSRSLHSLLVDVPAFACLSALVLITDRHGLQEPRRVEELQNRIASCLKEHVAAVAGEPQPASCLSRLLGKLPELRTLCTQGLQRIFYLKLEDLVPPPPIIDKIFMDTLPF
# T3 sequence (P19793 whole entry): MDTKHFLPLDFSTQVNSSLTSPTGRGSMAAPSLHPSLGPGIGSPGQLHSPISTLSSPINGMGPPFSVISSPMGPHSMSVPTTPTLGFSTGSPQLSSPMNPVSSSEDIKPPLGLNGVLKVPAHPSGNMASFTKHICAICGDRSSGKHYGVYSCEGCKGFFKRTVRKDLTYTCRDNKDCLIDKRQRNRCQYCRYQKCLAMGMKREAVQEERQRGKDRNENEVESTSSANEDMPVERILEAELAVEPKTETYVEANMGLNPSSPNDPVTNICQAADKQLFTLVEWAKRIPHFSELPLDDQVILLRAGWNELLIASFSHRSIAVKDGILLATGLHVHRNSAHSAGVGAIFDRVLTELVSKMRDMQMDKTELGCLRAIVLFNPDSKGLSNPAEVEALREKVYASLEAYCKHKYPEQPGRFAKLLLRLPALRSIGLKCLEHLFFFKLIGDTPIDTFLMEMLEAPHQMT
# T2 sequence (P10826 whole entry, species assumed): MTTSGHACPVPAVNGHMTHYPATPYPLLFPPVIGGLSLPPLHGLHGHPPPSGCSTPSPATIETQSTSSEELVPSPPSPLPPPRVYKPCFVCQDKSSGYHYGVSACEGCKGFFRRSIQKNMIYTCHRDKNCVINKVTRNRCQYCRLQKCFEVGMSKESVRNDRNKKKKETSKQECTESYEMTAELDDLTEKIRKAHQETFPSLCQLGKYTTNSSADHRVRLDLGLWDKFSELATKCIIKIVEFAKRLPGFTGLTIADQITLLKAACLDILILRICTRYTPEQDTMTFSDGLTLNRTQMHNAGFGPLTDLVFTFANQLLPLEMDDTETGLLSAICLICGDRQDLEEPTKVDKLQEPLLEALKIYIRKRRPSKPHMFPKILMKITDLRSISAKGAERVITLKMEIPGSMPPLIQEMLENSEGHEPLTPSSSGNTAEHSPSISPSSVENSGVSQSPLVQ
SMILES,"RXRα-binding activity, fold higher than Sulindac ([1]; competition ligand-binding assay)",inhibition of colony formation [2],"inhibition of TNFα-induced AKT activation, compared with Sulindac (AKT; 50 μM each)","PARP cleavage and caspase-8 activation, combination with TNFα (HepG2 liver cancer cells)",IC50 ([1]; competition with [3H]9-cis-RA on RXRα LBD protein) [µM],TNFα induction of c-FLIP (c-FLIPS and c-FLIPL) (c-FLIP),binding to RAR in cells by HPLC (RARβ),binding to RXRα in cells by HPLC (RXRα),binding to Nur77 in cells by HPLC (Nur77),"inhibition of TNFα-induced AKT activation (AKT; A549 lung cancer cells, 100 μM, TNFα 10 ng/ml)","inhibition of AKT activation, Sulindac alone (AKT; ZR-75-1 and PC3 cells (high basal AKT activation))","inhibition of AKT activation, combination with TNFα (AKT; ZR-75-1 and PC3 cells, 100 μM, TNFα 10 ng/ml)"
"CC1=C(CC(=O)O)c2cc(F)ccc2/C1=C\c1ccc(C(C)C)cc1 [K-80003, (Z)-2-(3-(4-Iso-propylbenzylidene)-6-fluoro-2-methyl-3H-inden-1-yl)acetic acid]",about 34 fold,much more effective than Sulindac; also recorded: almost completely suppressed,much more effective than Sulindac,synergistically induced PARP cleavage and caspase-8 activation,,,,,,,,
"CSc1ccc(/C=C2/C(C)=C(CC(=O)O)c3cc(F)ccc32)cc1 [Sulindac, (Z)-2-(3-(4-(Methylthio)benzylidene)-6-fluoro-2-methyl-3H-inden-1-yl)acetic acid]",,strongly inhibited,,effectively induced PARP cleavage and caspase-8 activation,80,inhibited,not other nuclear receptors such as RAR and Nur77,direct binding,not other nuclear receptors such as RAR and Nur77,potently inhibited,little inhibitory effect,almost completely
